This is an account of results in patent US20040063611A1, “Pharmaceutical preparation” (Merck Patent GmbH, priority 1998, published 2004).

Data set [1] in a line: In-vitro release Test 1 (phosphate buffer pH 7.4). The following applies: micronized, particle size between 5 μm and 25 μm (to 95%). Type of data set: physicochemical. From the text: (§1) In the Federal Register Vol. 62, No. 15, Aug. 14, 1997; page 43535, the Department of Health and Human. Services, Food and Drug Administration, published the facts that the products available on the U.S. market which comprise levothyroxine sodium and are orally administered have stability problems and therefore must be present in an up to […] excess dose and that manufacturers must develop appropriate novel administration forms. The requirements on in-vitro release for levothyroxine Na tablets have furthermore been increased. The monograph draft version of the Pharmacopeial Forum (Pharm. Preview, 1995, 21, 1459-1461) proposes, in addition to the valid Test 1 (phosphate buffer pH 7.4, in 80 minutes >55%) to approve Test 2 (water in 45 minutes >70%).
(§2) With a particle size between 5 μm and 25 μm (to 95%) , however, a release of the active compound takes place in Test 1 to >90% (phosphate buffer) and in Test 2 to >80% (water).

Data set [2] is described as follows: In-vitro release Test 2 (water). Particulars: micronized, particle size between 5 μm and 25 μm (to 95%). Format: physicochemical.
Text: as §1, §2

For data set [3] the following is noted: non-micronized (customarily), cited from earlier work.

Molecules are shown by their SMILES.

As for `N[C@@H](Cc1cc(I)c(Oc2cc(I)c(O)c(I)c2)c(I)c1)C(=O)O` [Levothyroxine sodium, levothyroxine sodium], in data set [1], the “release of the active compound in Test 1” value is on record as greater than 90%. Also, in data set [2], the “release of the active compound in Test 2” value was greater than 80%. The solubility in ethanol result in data set [3] (ethanol) was “very sparingly soluble”. For the same compound, in data set [3] (water), the solubility in water entry is “very sparingly soluble”.
